Measured values from patent publication US20150359854A1 (HUMAN MATRIX SCIENCES, LLC, priority 2012, published 2015).

Tests used:
[1] = system: human aortic SMCs (AoSMCs); assay: Quantitative assay of [3H]-valine-labeled insoluble elastin; assay type: cell-based; conditions: 24-hour treatment, 0.5 to 100 nmol/L insulin
Protocol: Cells were plated in 35-mm dishes at a density of 100,000 cells per dish and were grown to confluency. Two microcuries [3H]-valine per milliliter fresh medium supplemented with 2% FBS was added 2 hours before the indicated treatments. At the end of each experiment, the conditioned medium was collected and subjected to immunoprecipitation using anti-tropoelastin antibody. The cell layers were washed with PBS and incubated using radioimmunoprecipitation lysis buffer for 10 minutes on ice. After centrifugation, the supernatants were collected and subjected to immunoprecipitation using anti-tropoelastin antibody. The remaining pellets containing extracellular matrix were scraped and boiled in 500 μL 0.1 N NaOH for 30 minutes to solubilize all matrix components except the cross-linked elastin. Final results (counts per minute) reflecting the total amount of [3H]-valine-labeled insoluble elastin in individual cultures were normalized per their DNA contents (assessed using the Qiagen DNEASY® (DNA isolation) Tissue Kit) and expressed as percentage of control values.

[2] = system: cultures derived from aortic adventitia, primarily fibroblasts; assay: Elastic fiber deposition in cultures derived from aortic adventitia; assay type: cell-based, human
[3] = system: fibronectin or collagen I; assay: Immunodetection of deposited fibronectin and collagen I; assay type: cell-based, human; conditions: insulin-treated cultures of both cell types
[4] = system: human aortic SMCs (AoSMCs); assay: Cell proliferation ([3H]-thymidine incorporation and Ki-67 immunodetection); assay type: cell-based; conditions: 48-hour AoSMC cultures, 0.5 to 100 nmol/L insulin
Protocol: Cells were plated in 35-mm culture dishes (100,000 cells per dish) containing DMEM supplemented with 5% FBS. The cultures were grown to 70% to 80% confluency and serum-starved overnight to synchronize the cell cycles. […] The total amount of [3H]-thymidine-labeled DNA in individual cultures was then assessed via scintillation counting. […] The cultures were counterstained with hematoxylin. In each experimental group, quadruplicate cultures were examined under 200× magnification. The percentage of positively stained cells was determined and averaged over the 30 fields examined.

IGF-1R = target: T1, IGF-1R (Homo sapiens, UniProt P08069); assay: Immunoprecipitation and anti-phospho-Tyr blotting of IGF-1R; assay type: cell-based; conditions: 30 minutes, 0.5 to 10 nmol/L insulin or 10 nmol/L IGF-1, AoSMCs
T1 construct: 30-minute treatment of cultured AoSMCs; endogenous in cells; host or cells: human aortic smooth muscle cells (AoSMCs), second passage
Protocol: At the end of indicated treatments, the cultured cells were lysed as described, and 300 μL aliquots of cell extracts containing 300 μL proteins were incubated at 4° C. for 3 hours with the aliquots of protein G bound DYNABEADS® (Invitrogen Corp.) that were conjugated with either rabbit polyclonal anti-tropoelastin, goat polyclonal anti-Glut10, or rabbit polyclonal anti-S-Gal antibodies. The beads carrying the final immunoprecipitation products were then washed with PBS, resuspended in sample buffer, and boiled for 5 minutes. The released proteins were then resolved on SDS-PAGE gel and subjected to Western blotting using indicated antibodies.

tropoelastin mRNA = assay: RT-PCR assay of tropoelastin mRNA; assay type: cell-based, human; conditions: 10 nmol/L insulin
Protocol: At the end of the treatments, total RNA was extracted from quadruplicate cultures in each experimental group using the RNEASY® (RNA isolation) Mini Kit. One microgram total RNA from each sample was added to one-step RT-PCR (One-Step RT-PCR Kit; Qiagen, Inc.). The reactions were set up in a total volume of 25 μL. The reverse transcription step was performed for elastin and 18S ribosomal RNA reactions at 50° C. for 30 minutes, followed by 15 minutes at 95° C. The elastin PCR reaction using sense primer 5′[…]-3′ (SEQ ID NO 1) and antisense primer 5′[…]3′ (SEQ ID NO 2). The products were analyzed using ethidium bromide staining and densitometry-based image analysis using an optical system (Gel Doc 1000; Bio-Rad Laboratories, Inc., Hercules, Calif.). The amount of tropoelastin mRNA was standardized relative to the amount of 18S ribosomal RNA and expressed as percentage of control values.

cdk-2 = assay: Western blotting of cdk-2 phosphorylation; assay type: cell-based, human; conditions: 30-minute treatment, 10 nmol/L insulin
Text: At the end of all treatments, cells from quadruplicate cultures in each experimental group were lysed using NP40 cell lysis buffer (Invitrogen Corp.). Thirty micrograms of protein extracts from each sample was suspended in standard sample buffer, resolved on 4% to 12% gradient SDS-PAGE gels, transferred to nitrocellulose membranes, and subjected to Western blotting using antibodies.

tropoelastin = assay: Metabolically labeled tropoelastin in cell extracts and conditioned media (secretion); assay type: cell-based, human; conditions: 10 nmol/L insulin, 1 hour
Protocol: Cells were plated in 35-mm dishes at a density of 100,000 cells per dish and were grown to confluency. Two microcuries [3H]-valine per milliliter fresh medium supplemented with 2% FBS was added 2 hours before the indicated treatments. At the end of each experiment, the conditioned medium was collected and subjected to immunoprecipitation using anti-tropoelastin antibody. The cell layers were washed with PBS and incubated using radioimmunoprecipitation lysis buffer for 10 minutes on ice. After centrifugation, the supernatants were collected and subjected to immunoprecipitation using anti-tropoelastin antibody. […] Final results (counts per minute) reflecting the total amount of [3H]-valine-labeled insoluble elastin in individual cultures were normalized per their DNA contents (assessed using the Qiagen […] isolation) Tissue Kit) and expressed as percentage of control values. At the end of all treatments, cells from quadruplicate cultures in each experimental group were lysed using NP40 cell lysis buffer (Invitrogen Corp.). Thirty micrograms of protein extracts from each sample was suspended in standard sample buffer, resolved on 4% to 12% gradient SDS-PAGE gels, transferred to nitrocellulose membranes, and subjected to Western blotting using antibodies. At the end of indicated treatments, the cultured cells were lysed as described, and 300 μL aliquots of cell extracts containing […] were incubated at 4° C. for 3 hours with the aliquots of protein G bound DYNABEADS® (Invitrogen Corp.) that were conjugated with either rabbit polyclonal anti-tropoelastin, goat polyclonal anti-Glut10, or rabbit polyclonal anti-S-Gal antibodies. The beads carrying the final immunoprecipitation products were then washed with PBS, resuspended in sample buffer, and boiled for 5 minutes. The released proteins were then resolved on SDS-PAGE gel and subjected to Western blotting using indicated antibodies.

[5] = target: Insulin-Like Growth Factor-1 Receptor (IGFR-1R) (Homo sapiens, UniProt P08069); conditions: cited from earlier work
[6] = after 2 hours [3H]-valine and BAPN, serum-free
[7] = after 3 hours [3H]-valine and β-aminopropionitrile, 2% FBS

## insulin
[1]
  levels of metabolically labeled insoluble elastin: up-regulated
[2]; 1 nmol/L insulin, primarily fibroblasts
  deposition of new elastic fibers in aortic adventitia cultures: stimulated deposition of new elastic fibers
[2]; 48-hour treatment with 10 nmol/L insulin
  deposition of immunodetected elastic fibers in aortic media and adventitia cultures: deposit multiple immunodetected elastic fibers
[3]
  deposition of immunodetectable fibronectin or collagen I: did not reveal any up-regulation
[4]
  basic proliferative rate ([3H]-thymidine incorporation, Ki-67): did not induce any up-regulation
IGF-1R
  phosphorylation of IGF-1R: did not affect phosphorylation
Tropoelastin mRNA
  time of peak up-regulation of tropoelastin mRNA: 8 h
Tropoelastin mRNA; in 4 hours (time course)
  tropoelastin mRNA level: significant up-regulation
Tropoelastin mRNA; 8-hour treatment, serum-free
  tropoelastin mRNA level: induced significant up-regulation
cdk-2
  phosphorylation of cdk-2 on tyrosine 160: did not induce phosphorylation
tropoelastin; [6]
  immunodetected soluble tropoelastin in conditioned media vs untreated: significantly more
  metabolically labeled soluble tropoelastin in cell extracts vs untreated: significantly less
tropoelastin; [7]
  less metabolically labeled tropoelastin in cell layer extracts than untreated controls: 66%±6%
  more metabolically labeled tropoelastin in conditioned media than untreated counterparts: 94%±4%
[5]
  lower affinity of IGFR-1R for insulin compared to the insulin receptor: 1000 ×
